Legend:
human androgen receptor = target: T1, human androgen receptor (Homo sapiens, UniProt P10275); experiment: Reporter assay of an androgen receptor responsive sequence (luciferase, transiently transfected HEK293 cells); format: cell-based; conditions: 24 hours incubation, relative to activity of 100 nM DHT, read-out: AR transcriptive activity (pEC50) (converted)
T1 construct: expressed in transfected cells; host or cells: HEK293
T1 sequence (P10275 1-920): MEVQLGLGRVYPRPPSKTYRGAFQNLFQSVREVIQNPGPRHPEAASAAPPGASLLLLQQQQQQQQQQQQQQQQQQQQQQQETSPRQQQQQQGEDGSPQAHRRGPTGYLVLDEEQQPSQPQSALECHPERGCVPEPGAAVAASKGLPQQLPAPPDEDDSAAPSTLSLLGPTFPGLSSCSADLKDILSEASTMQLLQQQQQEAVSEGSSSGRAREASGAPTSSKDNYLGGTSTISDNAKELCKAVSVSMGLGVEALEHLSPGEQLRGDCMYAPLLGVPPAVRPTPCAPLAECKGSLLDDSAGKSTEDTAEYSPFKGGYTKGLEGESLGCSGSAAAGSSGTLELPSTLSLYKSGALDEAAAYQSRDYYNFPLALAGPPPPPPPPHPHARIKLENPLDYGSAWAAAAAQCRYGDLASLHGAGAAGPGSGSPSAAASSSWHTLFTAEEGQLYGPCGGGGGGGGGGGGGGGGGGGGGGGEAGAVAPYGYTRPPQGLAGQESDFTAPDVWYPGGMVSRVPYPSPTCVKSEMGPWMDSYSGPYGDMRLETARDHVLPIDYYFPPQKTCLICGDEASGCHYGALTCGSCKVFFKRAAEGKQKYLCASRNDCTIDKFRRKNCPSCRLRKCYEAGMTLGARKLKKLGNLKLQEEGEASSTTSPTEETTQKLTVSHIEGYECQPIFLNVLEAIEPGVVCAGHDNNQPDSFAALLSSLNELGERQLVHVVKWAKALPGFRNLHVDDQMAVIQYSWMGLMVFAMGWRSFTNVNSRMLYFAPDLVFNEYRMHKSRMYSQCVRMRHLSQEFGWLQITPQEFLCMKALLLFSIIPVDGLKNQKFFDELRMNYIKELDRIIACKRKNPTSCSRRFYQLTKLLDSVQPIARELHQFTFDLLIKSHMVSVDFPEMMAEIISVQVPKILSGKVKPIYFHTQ
Summary of the method: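 HEK293 cells transiently transfected for 3 h with ARE-firefly luciferase, full-length human AR and TK-Renilla plasmids, then exposed to compound for 24 h at 37 °C in 5% charcoal-treated FBS/DMEM. Dual-Glo luminescence read; pEC50 from 4-parameter fit relative to 100 nM DHT.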

[1] = target: T2, androgen receptor (AR-LBD) (Rattus norvegicus, UniProt P15207); experiment: Evaluation of androgen receptor affinity (PolarScreen Androgen Receptor Competitor Assay Kit, Red; fluorescence polarization); conditions: 22° C. for 5 hours, relative to binding rate of 1 μM DHT, read-out: AR affinity (pEC50) (converted)
T2 construct: 5 μL of 2×AR-LBD/Fluoromone AL Red Complex contained in the kit; purchased Invitrogen
T2 sequence (P15207 651-882 limits assumed): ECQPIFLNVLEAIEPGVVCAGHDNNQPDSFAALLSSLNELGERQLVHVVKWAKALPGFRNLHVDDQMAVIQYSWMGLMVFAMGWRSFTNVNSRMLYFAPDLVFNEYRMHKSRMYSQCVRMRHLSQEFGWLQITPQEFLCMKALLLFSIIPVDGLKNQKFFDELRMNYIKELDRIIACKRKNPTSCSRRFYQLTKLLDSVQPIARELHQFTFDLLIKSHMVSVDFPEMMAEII
Summary of the method: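 Fluorescence polarization competition assay: compound was incubated in duplicate with the kit's AR-LBD/Fluoromone AL Red complex for 5 h at 22 °C. Binding was expressed relative to 1 μM DHT, and pEC50 was derived by 4-parameter fit.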

SMILES | EC50 (human androgen receptor) | EC50 [1]
Cc1sc(N(CCc2ccccc2F)Cc2ccccc2)nc1C(=O)NS(C)(=O)=O [Compound 339, 2-[benzyl-[2-(2-fluorophenyl)ethyl]amino]-5-methyl-N-methylsulfonyl-thiazole-4-carboxamide] | 2000 nM | 39.8 nM
Cc1sc(N(CCc2cccc(C(F)(F)F)c2)Cc2ccccc2)nc1C(=O)NS(C)(=O)=O [Compound 330, 2-[benzyl-[2-[3-(trifluoromethyl)phenyl]ethyl]amino]-5-methyl-N-methylsulfonyl-thiazole-4-carboxamide] | > 10000 nM | 251 nM
Cc1sc(N(CCc2cccc(O)c2)c2ccc(C#N)cc2)nc1C(=O)NS(C)(=O)=O [Compound 401, 2-[4-cyano-N-[2-(3-hydroxyphenyl)ethyl]anilino]-5-methyl-N-methylsulfonyl-thiazole-4-carboxamide] | 1580 nM | 158 nM
Cc1sc(N(Cc2cc(F)cc(C(F)(F)F)c2)c2ccc(C#N)cc2)nc1C(=O)NS(C)(=O)=O [Compound 416, 2-[4-cyano-N-[[3-fluoro-5-(trifluoromethyl)phenyl]methyl]anilino]-5-methyl-N-methylsulfonyl-thiazole-4-carboxamide] | 158 nM | 25.1 nM
Cc1oc(N(Cc2nc3ccccc3s2)c2ccc(C#N)cc2)nc1C(=O)NS(C)(=O)=O [Compound 630, 2-[N-(1,3-benzothiazol-2-ylmethyl)-4-cyano-anilino]-5-methyl-N-methylsulfonyl-oxazole-4-carboxamide] | 2510 nM | 158 nM
Cc1sc(N(CCc2ccc(C#N)cc2)Cc2ccc(OC(F)(F)F)cc2)nc1C(=O)NS(C)(=O)=O [Compound 323, 2-[2-(4-cyanophenyl)ethyl-[[4-(trifluoromethoxy)phenyl]methyl]amino]-5-methyl-N-methylsulfonyl-thiazole-4-carboxamide] | 251 nM | 25.1 nM
CS(=O)(=O)NC(=O)c1nc(N(Cc2cccc(Cl)c2)c2ccc(C#N)cc2)sc1Cl [Example 268, 5-chloro-2-[N-[(3-chlorophenyl)methyl]-4-cyano-anilino]-N-methylsulfonyl-thiazole-4-carboxamide] | 63.1 nM | 50.1 nM

Reference: patent publication US10689354B2, “Aminoazole derivative” (Teijin Pharma Limited, priority 2015, dated 2020)
